Source: patent publication US20250032581A1, “COMPOSITIONS AND ARTICLES COMPRISING AN ADNF POLYPEPTIDE” (RAMOT AT TEL-AVIV UNIVERSITY LTD., priority 2021, published 2025)

Tests used:
Assay type in all cases: cell-based, mouse
[1] = test system: differentiated N1E-115 cells expressing RFP-tagged EB3; assay: Live imaging of EB3 comet-like structures (MT dynamics); conditions: 10^−12M, 4 hrs, vs. non-treated control; no significant differences between NAP and SKIP
Excerpt: Plasmid construction—Protein expressing plasmids were constructed as previously described based on pEGFP-C1 backbone and express full-length ADNP or the following truncated ADNP proteins: p.Glu830synfs*83, p.Lys408Valfs*31, p.Ser404* (as before). Inserts of cDNA carrying unique mutations were obtained from mRNA extracted from patient-derived lymphoblastoid cell lines and cDNA with full-length human ADNP was obtained from a control lymphoblastoid cell line with no mutation. Protein expressions were verified by fluorescent imaging and immunoblotting analysis as before.
(§1) Cell culture—Mouse neuroblastoma NIE-115 cells were maintained in Dulbecco's modified Eagle's medium, 10% fetal bovine serum, 2 mM glutamine and 100 U ml-1 penicillin, 100 mg ml-1 streptomycin (Biological Industries, Beit Haemek, Israel). The cells were incubated in 9 5% air/5% CO2 in a humidified incubator at 37° C.
(§2) Cell differentiation and co-transfection of overexpression plasmids—Cultured NIE-115 cells were plated on 35 mm dishes (81156, 60 p-Dish, Ibidi, Martinsried, Germany) at a concentration of 1.25×10^4 cells per dish and then were differentiated with reduced fetal bovine serum (2%) and DMSO (1.25%) containing medium for 5 days before transfection. 48 hrs before experiments N1E-115 cells were co-transfected with 1 μg EB3-RFP or mCherry-Tau (3R) plasmid with or without 2 μg of plasmids, coding to GFP conjugated to full-length human ADNP, or ADNP carried mutations. 1:3 ratios between total amount of transfected DNA and transfection reagent were used according to manufacture guidance (Lipofectamine2000, Thermo Fisher Scientific, Waltham, MA, USA) in all subsequent experiments.
Live Imaging—48 hrs after transfection, differentiated NIE-115 cells (expressing EB3-RFP with or without GFP-conjugated to full-length ADNP or mutated ADNP) were incubated at 37° C. with a 5% CO2/95% air mixture in a thermostatic chamber placed on the stage of a Leica TCS SP5 confocal microscope (objective 100× (PL Apo) oil immersion, NA 1.4). Time-lapse images were automatically captured 3 sec during 1 min, using the Leica LAS AF software. After imaging all samples were also treated with NAP (SEQ ID NO: 2) or SKIP (SEQ ID NO: 21) in final concentrations of 10^−12M, and after 4 hrs time-lapse imaging was done again under the same conditions. Data was collected and analyzed by Imaris software.
To evaluate the effect of ADNP truncated proteins on MT dynamics time-lapse imaging of EB3 comet-like structures formed by RFP-tagged EB3 proteins that bind to MT plus-ends was performed. Two parameters of EB3 activity were used to assess MT dynamics—track length and track speed of EB3 comets, which reflect the length of freshly growing MTs and the speed of MT assembly, respectively. Furthermore, the present inventors aimed to determine whether NAP ([…] for 4 hrs) could prevent the deleterious effect of ADNP mutations.

[2] = test system: Tau-MT interaction in differentiated N1E-115 cells; assay: Fluorescence recovery after photobleaching (FRAP) of mCherry-Tau; conditions: zinc 400 μM, 1 h; peptide 10^−12M
Procedure: as §1, §2
Fluorescence recovery after photobleaching (FRAP)—Differentiated NIE-115 cells were transfected with mCherry-Tau with or without GFP-conjugated to full-length ADNP or mutated ADNP, and imaged 48 hrs after transfection. An ROI for photobleaching was drowned in the proximal cell branches. mCherry-Tau was bleached with a […], and fluorescence recovery was collected within wavelengths of 610-650 nm. 80 images were taken every 0.74 sec immediately after bleaching. After FRAP imaging all samples were also treated with NAP in final concentrations of 10^−12M, and after 4 hrs time-lapse imaging was done again under the same conditions. FRAP imaging for assessment difference between NAP and SKIP (SEQ ID NO: 21) activity was performed after an hour of ZnCl2 treatment (400 μM final concentration; Sigma, Rehovot, Israel) with or without NAP/SKIP (10^−12M final concentration). Fluorescence signals were quantified with Fiji, obtained data were normalized with easyFRAP [82, 83] and FRAP recovery curves were fitted by a one-phase exponential association function by GraphPad Prism6 (GraphPad Software, Inc., La Jolla, CA, USA) while samples with R^2<0.9 were excluded.
Next, the effect of full-length/truncated ADNP forms with or without NAP treatment on Tau-MT interaction was examined by fluorescence recovery after photobleaching (FRAP) (FIGS. 8A-C). FRAP was performed with mCherry-tagged Tau protein (FIG. 8A). […] Therefore, the immobile mCherry-Tau fraction reflects the rate of Tau association with MTs.

Tau, tubulin = assay: Polymerized vs. soluble tubulin assay; conditions: zinc 400 μM, 4 h, peptide 10^−12M
Procedure: Polymerized vs. soluble tubulin assay—To quantify tubulin polymerization and Tau-MT association, a simple assay was performed as previously described. The cells grown to confluence in six-well plates were washed with MT buffer (80 mM PIPES pH 6.8, 1 mM MgCl^2, 2 mM EGTA, 5% Glycerol) and lysed at room temperature for 5 min through centrifugation (300 g), with 150 μl of MT buffer with 0.5% Triton X-100 to extract soluble (cytosolic) tubulin (S). The pelleted cells were rinsed once again with an equal volume of modified RIPA lysis buffer (50 mM Tris-HCL pH 7.4, 150 mM NaCl, 2 mM EGTA, 1% Triton X-100, 0. 1% SDS, 0.1% sodium Deoxycholate) to collect the polymerized (cytoskeletal) tubulin (P). The cytosolic and cytoskeletal fractions were each mixed with sample buffer and heated at 95° C. for 5 min. An equal volume of each fraction was analyzed by immunoblotting with Tau, tubulin and actin antibodies, and the results following ECL development were quantified by densitometry (GelQuant.NET software provided by biochemlabsolutions(dot)com).
It is known that in the presence of extracellular zinc NAP protects MT against degradation by promoting Tau binding to the MT shaft. Polymerized vs. soluble tubulin assay was effected to compare protective activities of NAP and SKIP against MT degradation and Tau-MT dissociation (FIGS. 11F-G). After treatments with zinc (400 μM, 4 h) with and without NAP or SKIP (10^−12M, 4 h) the cellular-tubulin pool was separated into polymerized and soluble tubulin fractions. The amount of Tau, tubulin, and actin was identified by immunoblotting (FIG. 11F), followed by densitometric quantification (FIG. 11G).

SKIP
EB3 track length and speed [1]: increased EB3 track length and speed
Tau immobile fraction (Tau-MT interaction) in the presence of zinc [2]: prevented zinc adverse effect
protection against Tau dissociation from MTs (soluble Tau ratio) (Tau, tubulin): only NAP exhibited protection against Tau dissociation from MTs
protection of polymerized tubulin against zinc (Tau, tubulin): protected against zinc-induced decay
